Results on 5 compounds are retold here after patent US20250223306A1, “TEAD INHIBITORS AND METHODS OF USE” (Sporos BioDiscovery, Inc., priority 2022, published 2025).

One test relates to NCI-H23 cells. The test can be described thus: Proliferation and cell viability, CellTiter-Glo 2.0 (CTG) assay. It counts as cell-based. The following applies: 144 hrs.
In test [1] the test system is TEAD/YAP promoter element in MCF7-Luc cells. The test can be described thus: Cell-based TEAD-promoter transcriptional activity assay (MCF-7 TEAD luciferase). The conditions noted are these: MCF-7 TEAD luciferase assay, 24 hrs. An excerpt: Luciferase based TEAD-transcriptional cell-based reporter assay: To measure the effect of the TEAD inhibitors disclosed herein on TEAD transcriptional activity in cell-based systems, we employed a stable MCF7 cell line expressing luciferase under a consensus synthetic TEAD/YAP promoter element (MCF7-Luc, BPS Bioscience, Catalog #60618). This MCF7-TEAD-Luc cell line has been extensively validated with both genetic and pharmacological intervention, showing inhibition of luciferase expression and luminescence in response to ablation of the TEAD/YAP pathway. MCF7-Luc cells were plated at 10,000 cells per well in white 384-well plates and settled by a quick spin. The media was MEM (Gibco) supplemented with 10% fetal bovine serum (ExCell), selenium-transferrin-insulin mix (Gibco), 1× non-essential amino acids (Gibco) and sodium pyruvate (Gibco). Cells were allowed to attach and grow overnight (37° C., 5% CO2 in humidified incubator), and test compounds were added the next day. Compounds were dissolved at 1000× fold excess in DMSO and made into 2-fold serial dilution, and added to media at 30 μL of media per well. A DMSO-only well serves a vehicle control. The highest concentration of drug in media was 1,000 nM. Positive control compounds include K975 (pan-TEAD inhibitor) and negative control (Actinomycin). Cells were incubated for 24 hrs with test compounds and positive controls, after which time, the luminescence was measured by the One-Glo luciferase kit (Promega). 30 μL of One-Glo reagent was added to each well and shaken for 8 minutes to lyse the cells. The plates were centrifugated at 1000 RPM for 1 minute to settle all liquid in the well and eliminate bubbles. Luminescence was quantified using an ENVision plate reader (Perkin Elmer). Percent inhibition of luminescence by test compound was expressed as a function of test compound concentration, with the no-test compound DMSO only wells serving as baseline. EC50 values for each compound were calculated with a non-linear asymptotic line fit.

[2] abbreviates: Homo sapiens, NCI-H23, H23-non-responder cell line.

Where only a bound is given, the exact number is not on record here.

The compound `C[C@H](NC(=O)c1cnc2c(C3=CC[C@@H](C(F)(F)F)CC3)cccc2c1)c1ncco1` (single isomer, unassigned) [Compound 19, N-(1-(oxazol-2-yl)ethyl)-8-(4-(trifluoromethyl)cyclohex-1-en-1-yl)quinoline-3-carboxamide] had an IC50 with NCI-H23 cells (setting [2]) greater than 1000 nM. For the same compound, the half-maximal effective concentration (EC50) in test [1] (Homo sapiens, MCF7) is less than 200 nM.
Regarding `C[C@H](NC(=O)c1cnc2c(C3=CC[C@@H](C(F)(F)F)CC3)cccc2c1)c1ncco1` (single isomer, unassigned) [Compound 20, N-(1-(oxazol-2-yl)ethyl)-8-(4-(trifluoromethyl)cyclohex-1-en-1-yl)quinoline-3-carboxamide], the concentration for half-maximal inhibition (IC50) in the test with NCI-H23 cells (H23-non-responder cell line) was greater than 1000 nM. The compound further came in with an EC50 in test [1] of less than 200 nM.
In the test on NCI-H23 cells (setting [2]), `C[C@H](NC(=O)c1cnc2c(C3=CCC(C(F)(F)F)CC3)cccc2c1)c1ccccn1` (stereo partly drawn) [Compound 2, N—((S)-1-(pyridin-2-yl)ethyl)-8-(4-(trifluoromethyl)cyclohex-1-en-1-yl)quinoline-3-carboxamide] yielded an IC50 greater than 1000 nM. Moreover, in test [1] (Homo sapiens, MCF7), the 50% effective concentration (EC50) was less than 200 nM.
In turn, `C[C@H](CO)NC(=O)c1cnc2c(C3=CCC(C(F)(F)F)CC3)cccc2c1` (stereo partly drawn) [Compound 7, N—((R)-1-hydroxypropan-2-yl)-8-(4-(trifluoromethyl)cyclohex-1-en-1-yl)quinoline-3-carboxamide] returned an IC50 in the test on NCI-H23 cells (setting [2]) greater than 1000 nM.
`O=C(NCc1ncco1)c1cnc2c(C3=CCC(C(F)(F)F)CC3)cccc2c1` (stereo not drawn) [Compound 11, N-(oxazol-2-ylmethyl)-8-(4-(trifluoromethyl)cyclohex-1-en-1-yl)quinoline-3-carboxamide]: the half-inhibitory concentration (IC50) with NCI-H23 cells (setting [2]) was greater than 1000 nM. The concentration giving a half-maximal response (EC50) in test [1] (Homo sapiens, MCF7) is less than 200 nM.
